“And” between values parts separate entries of the source, which are not always exact repeats. Equal values may be shown once. Read-outs that look alike come from different tables or passages of the source.
Tested on: human sebocytes
Experiment: Sebum suppression: 14C-acetate incorporation in cultured human sebocytes, test agent alone or with retinol
Format: cell-based
Conditions: for activity at 1 µM / activity at 10 µM: read-out: % of Control
Method: Compounds A through H were tested for their potential to suppress sebum expression, alone or in the presence of a retinoid.
Secondary cultures of human sebocytes obtained from an adult […] were grown in 48-well tissue culture plates (Costar Corp.; Cambridge, Mass.) or 96-well tissue culture plates (Packard Co.; Meriden, Conn.) until confluent. Sebocyte growth medium consisted of Clonetics Keratinocyte Basal Medium (KBM) supplemented with 14 μg/ml bovine pituitary extract, 0.4 μg/ml hydrocortisone, 5 μg/ml insulin, 10 ng/ml epidermal growth factor, 1.2×10−10 M cholera toxin, 100 units/ml penicillin, and 100 μg/ml streptomycin. All cultures were incubated at 37° C. in the presence of 7.5% CO2. Medium was changed three times per week.
On the day of experimentation, the growth medium was removed and the sebocytes washed three times with sterile Dulbecco's Modified Eagle Medium (DMEM; phenol red free). Fresh DMEM was added to each sample (duplicates, triplicates, or quadruplicates depending on the experiment) with 5 microliter of test agent solubilized in ethanol either alone or in the presence of one or 10 micromolar of retinol. Controls consisted of addition of ethanol alone, retinol alone, or phenol red, which has estrogen-like activity and is included as a positive control.
Each plate was returned to the incubator for 20 hours followed by the addition of 14C-acetate buffer (5 mM final concentration, 56 mCi/mmol specific activity). Sebocytes were returned to the incubator for four hours after which each culture was rinsed three times with phosphate buffered saline to remove unbound label. Radioactive label remaining in the sebocytes was harvested and counted using a Beckman scintillation counter.

[1] = Homo sapiens, 1 μM test compound + 1 μM Retinol
[2] = Homo sapiens, 1 μM test compound + 10 μM Retinol
[3] = Homo sapiens, 1 μM test compound alone
[4] = Homo sapiens, 10 μM test compound + 1 μM Retinol
[5] = Homo sapiens, 10 μM test compound + 10 μM Retinol
[6] = Homo sapiens, 10 μM test compound alone
[7] = 10 μM test compound + 10 μM Retinol

Compound	activity at 1 µM [1]	activity at 1 µM [2]	activity at 1 µM [3]	activity at 10 µM [4]	activity at 10 µM [5]	activity at 10 µM [6]	further results
O=C(Nc1ccc(O)cc1)N1c2ccccc2CCc2ccccc21 [Compound C]	83.7%	70.3%	91.4%	27.5%	1.4%	41.5%	sebum suppressive activity when combined with retinol (in the presence of retinol / a retinoid, summary in words): improved activity
O=C(Nc1ccc(OC(F)(F)F)cc1)N1c2ccccc2CCc2ccccc21 [Compound B]	86%	74.2%	88.9%	96%	111%	82%	–
CCCN(CCO)C(=O)CC1c2ccccc2-c2ccccc21 [Compound H]	76.8%	68%	65.9%	71%	73.5%	71.1%	–
O=S1(=O)OC(c2ccc(O)cc2)(c2ccc(O)cc2)c2ccccc21 [Phenol Red, phenol red, reference compound]	–	–	–	–	–	–	% of Control (28 μM Phenol Red (positive control)): 84.4%; activity at 28 µM (Homo sapiens, 28 μM Phenol Red (positive control)): 67.6%
Cc1c(Cl)cccc1NC(=O)N1c2ccccc2CCc2ccccc21 [Compound D]	75.4%	74.3%	80.1%	105%	88.7%	101%	% of Control (100 μM test compound + 1 μM Retinol): 1.1%; % of Control (100 μM test compound + 10 μM Retinol): 0.5%; % of Control (100 μM test compound alone): 1.8%
O=C(CC1c2ccccc2-c2ccccc21)N1CCC(O)(c2ccc(Cl)cc2)CC1 [Compound F]	35.7%	29.3%	–	15.3%	–	–	% of Control (10 μM test compound alone): 26.7% and 75.0%
CC(O)c1cccc(NC(=O)N2c3ccccc3CCc3ccccc32)c1 (stereo not drawn) [Compound A]	–	–	–	–	–	–	% of Control (1 μM test compound + 1 μM Retinol): 86.2%; % of Control (10 μM test compound + 1 μM Retinol): 85.8% and 45.9%; % of Control [7]: 80.1% and 44.3%; % of Control (10 μM test compound alone, 10 µM): 88.8%
O=C(CC1c2ccccc2-c2ccccc21)N1CCC(O)(c2ccccc2)CC1 [Compound G]	114%	–	–	65.3%	63.8%	63%	% of Control (1 μM test compound + 10 μM Retinol): 80.2% and 102.9%; % of Control (1 μM test compound alone, 1 µM): 77.3% and 105.2%; % of Control [7]: 75.4%
CC1=C(/C=C/C(C)=C/C=C/C(C)=C/CO)C(C)(C)CCC1 [Retinol, retinol, reference compound]	–	–	–	–	–	–	% of Control (1 μM Retinol alone): 98.4% and 99.9% and 85.5% and 99.3%; % of Control (10 μM Retinol alone): 101.8% and 111.7% and 100.1% and 81.8% and 104.8% and 95.2%; sebum suppressive activity (alone, summary in words): inactive

From US6355687B1, “Cosmetic compositions containing substituted iminodibenzyl or fluorene derivatives” (Unilever Home and Personal Care USA, division of Conopco, …, priority 2000, dated 2002)
